According to patent publication US7655665B2, “Nitromethylene derivatives and their use” (East China University of Science and Technology, priority 2004, dated 2010):

Legend:
[1] = test system: Nilaparvata lugens; assay: Insecticidal activity against Nilaparvata lugens (planthopper) by spraying; format: in vivo; details: 500 ppm; for mortality (%) (500 ppm) Nilaparvata lugens: spraying 2 ml, counted after 24 hours; for mortality (%) (500 ppm) Nilaparvata-lugens: spraying 2 ml per tumbler, killed counted after 24 hours
Protocol: (§1) Test on the insecticidal activity of Compound Nos. 1-227
Planthopper, which belongs to Homoptera and has a piercing-sucking mouthpart, is a common insect for agricultural plant. Nilaparvata lugens was tested by the way of spraying.
Test method: the test compound was exactly formulated into a solution having a certain concentration and clean water was used as a blank control. Each process was repeated for 3 tumblers (3 times). 2 ml of solution was sprayed uniformly to each tumbler by a mini manual sprayer. 10 Nilaparvata lugens were introduced to every sink 6 hours before spraying. Three series of experiments were conducted. The number of killed Nilaparvata lugens was counted after 24 hours to calculate the mortality.

[2] = test system: Aphis craccivoral; assay: Insecticidal activity against Aphis craccivoral by immersing (dipping aphids on bean sprout); format: in vivo; details: 23° C.
Protocol: as §1
Aphis, which belongs to Homoptera and has a piercing-sucking mouthpart, is a common insect for agricultural plant. Aphis craccivoral was tested by the way of immersing.
Test method: exactly weighed various samples were independently added to N,N-dimethylformamide to form a 10 g/L stock solution. The mixture was diluted with 0.2 mL/L aqueous Triton X-100 solution to a concentration of 500 ug/mL. After stably sucking on bean sprout, the adult aphis without wings together with bean sprout was dipped into 500 ug/mL dilution, taken out after 5 seconds, and the excess dilution was sucked out with bibulous paper and the adult aphis without wings was incubated in clean vessel at a constant temperature of 23° C. Each concentration was repeated for 3 times and the control group contained 0.2 mL/L aqueous Triton X-100 solution. The number of killed aphis was counted after 24 hours to calculate the mortality.

[3] = 500 ppm, immersing (dipped 5 seconds), counted after 24 hours
[4] = 500 ppm (500 ug/mL dilution), dipped 5 seconds, killed aphis counted after 24 hours

| SMILES | mortality (%) (500 ppm) Nilaparvata lugens [1] | mortality (%) (500 ppm) Aphis [2, 3] | mortality (%) (500 ppm) Nilaparvata-lugens [1] | mortality (%) (500 ppm) Aphis [2, 4] |
| --- | --- | --- | --- | --- |
| COC1CCC([N+](=O)[O-])=C2N(Cc3ccc(Cl)nc3)CCCN21 (stereo not drawn) [Compound 72] | 100 | 35 |  |  |
| O=[N+]([O-])C1=C2N(Cc3cnc(Cl)s3)CCCN2C(OCCCl)CC1 (stereo not drawn) [Compound 88] | 34 | 23 |  |  |
| O=[N+]([O-])C1=C2N(Cc3ccc(Cl)nc3)CCN2C(OS(=O)(=O)C(F)(F)F)CC1 (stereo not drawn) [Compound 118] | 100 | 81 |  |  |
| O=C(OC1CCC([N+](=O)[O-])=C2N(Cc3cnc(Cl)s3)CCN21)c1cccnc1 (stereo not drawn) [Compound 159] | 8 | 0 |  |  |
| CC(C)OC1CCC([N+](=O)[O-])=C2N(CC3CCOC3)CCCN21 (stereo not drawn) [Compound 105] | 98 | 10 |  |  |
| O=[N+]([O-])C1=C2N(Cc3cnc(Cl)s3)CCCN2C(O)CC1 (stereo not drawn) [Compound 85] | 23 | 12 |  |  |
| O=[N+]([O-])C1=C2N(Cc3ccc(Cl)nc3)CCN2C(=NCCCl)CC1 [Compound 191] |  |  | 78 | 53 |
| COCCOC1CCC([N+](=O)[O-])=C2N(Cc3cnc(Cl)s3)CCN21 (stereo not drawn) [Compound 43] | 100 | 100 |  |  |
| CC(C)(C)OC1CCC([N+](=O)[O-])=C2N(Cc3cnc(Cl)s3)CCCN21 (stereo not drawn) [Compound 96] | 100 | 80 |  |  |
| CCCCCN=C1CCC([N+](=O)[O-])=C2N(Cc3ccc(Cl)nc3)CCCN12 [Compound 208] |  |  | 67 | 35 |
| CCCCCOC1CCC([N+](=O)[O-])=C2N(Cc3cnc(Cl)s3)CCN21 (racemic) [Compound 36] | 57 | 34 |  |  |
| CCN=C1CCC([N+](=O)[O-])=C2N(Cc3cnc(Cl)s3)CCN12 [Compound 214] |  |  | 90 | 55 |
| C=CCOC1CCC([N+](=O)[O-])=C2N(Cc3ccc(Cl)nc3)CCN21 (racemic) [Compound 19] | 78 | 35 |  |  |
| O=[N+]([O-])C1=C2N(CC3CCOC3)CCCN2C(OCCCl)CC1 (stereo not drawn) [Compound 102] | 89 | 0 |  |  |
| COC1CCC([N+](=O)[O-])=C2N(CC3CCOC3)CCN21 (stereo not drawn) [Compound 46] | 100 | 100 |  |  |
| CC(C)CCN=C1CCC([N+](=O)[O-])=C2N(Cc3ccc(Cl)nc3)CCCN12 [Compound 209] |  |  | 26 | 23 |
| CCCOC1CCC([N+](=O)[O-])=C2N(Cc3cnc(Cl)s3)CCN21 (racemic) [Compound 28] | 100 | 100 |  |  |
| CCCCN=C1CCC([N+](=O)[O-])=C2N(Cc3ccc(Cl)nc3)CCN12 [Compound 194] |  |  | 45 | 34 |
| CCC(C)OC1CCC([N+](=O)[O-])=C2N(CC3CCOC3)CCN21 (stereo not drawn) [Compound 55] | 12 | 45 |  |  |
| O=[N+]([O-])C1=C2N(Cc3cnc(Cl)s3)CCCN2C(OC(C(F)(F)F)C(F)(F)F)CC1 (stereo not drawn) [Compound 92] | 5 | 6 |  |  |
| C=CCOC1CCC([N+](=O)[O-])=C2N(Cc3cnc(Cl)s3)CCN21 (racemic) [Compound 41] | 100 | 89 |  |  |
| O=C(OC1CCC([N+](=O)[O-])=C2N(Cc3cnc(Cl)s3)CCN21)C(Cl)(Cl)Cl (stereo not drawn) [Compound 154] | 100 | 93 |  |  |
| CCC(C)OC1CCC([N+](=O)[O-])=C2N(CC3CCOC3)CCN21 (stereo not drawn) [Compound 59] | 3 | 2 |  |  |
| CC(C)COC1CCC([N+](=O)[O-])=C2N(CC3CCOC3)CCN21 (stereo not drawn) [Compound 54] | 34 | 23 |  |  |
| CC(C)COC1CCC([N+](=O)[O-])=C2N(Cc3cnc(Cl)s3)CCN21 (racemic) [Compound 32] | 23 | 37 |  |  |
| CCCCN=C1CCC([N+](=O)[O-])=C2N(Cc3ccc(Cl)nc3)CCCN12 [Compound 207] |  |  | 45 | 14 |

| SMILES | mortality (%) (500 ppm) Nilaparvata lugens [1] | mortality (%) (500 ppm) Aphis [2, 3] | mortality (%) (500 ppm) Nilaparvata-lugens [1] | mortality (%) (500 ppm) Aphis [2, 4] |
| --- | --- | --- | --- | --- |
| CC(C)(C)OC1CCC([N+](=O)[O-])=C2N(Cc3ccc(Cl)nc3)CCCN21 (stereo not drawn) [Compound 82] | 34 | 12 |  |  |
| C#CCOC1CCC([N+](=O)[O-])=C2N(CC3CCOC3)CCN21 (stereo not drawn) [Compound 65] | 34 | 47 |  |  |
| CCCC(C)OC1CCC([N+](=O)[O-])=C2N(Cc3cnc(Cl)s3)CCN21 (mixture of isomers) [Compound 38] | 67 | 35 |  |  |
| CCN=C1CCC([N+](=O)[O-])=C2N(Cc3ccc(Cl)nc3)CCCN12 [Compound 203] |  |  | 100 | 92 |
| COCCN=C1CCC([N+](=O)[O-])=C2N(Cc3ccc(Cl)nc3)CCN12 [Compound 199] |  |  | 36 | 16 |
| CCCCN=C1CCC([N+](=O)[O-])=C2N(Cc3cnc(Cl)s3)CCN12 [Compound 216] |  |  | 98 | 66 |
| CCOCCSC1CCC([N+](=O)[O-])=C2N(Cc3ccc(Cl)nc3)CCN21 (stereo not drawn) [Compound 149] | 100 | 98 |  |  |
| CCC(C)OC1CCC([N+](=O)[O-])=C2N(Cc3ccc(Cl)nc3)CCCN21 (stereo not drawn) [Compound 81] | 8 | 12 |  |  |
| CCOCCN=C1CCC([N+](=O)[O-])=C2N(Cc3ccc(Cl)nc3)CCN12 [Compound 200] |  |  | 78 | 45 |
| CCOCCOC1CCC([N+](=O)[O-])=C2N(Cc3cnc(Cl)s3)CCCN21 (stereo not drawn) [Compound 98] | 7 | 4 |  |  |
| O=[N+]([O-])C1=C2N(Cc3ccc(Cl)nc3)CCCN2C(=NCCCl)CC1 [Compound 204] |  |  | 78 | 46 |
| CC(C)SC1CCC([N+](=O)[O-])=C2N(Cc3cnc(Cl)s3)CCN21 (stereo not drawn) [Compound 176] |  |  | 98 | 78 |
| CN=C1CCC([N+](=O)[O-])=C2N(Cc3ccc(Cl)nc3)CCN12 [Compound 189] |  |  | 100 | 100 |
| CCOCCOC1CCC([N+](=O)[O-])=C2N(CC3CCOC3)CCN21 (stereo not drawn) [Compound 67] | 100 | 100 |  |  |
| CC(C)OC1CCC([N+](=O)[O-])=C2N(Cc3cnc(Cl)s3)CCN21 (racemic) [Compound 29] | 100 | 100 |  |  |
| CCOC1CCC([N+](=O)[O-])=C2N(CC3CCOC3)CCN21 (stereo not drawn) [Compound 47] | 100 | 45 |  |  |
| O=C(OC1CCC([N+](=O)[O-])=C2N(Cc3ccc(Cl)nc3)CCN21)c1ccccc1 (stereo not drawn) [Compound 122] | 23 | 56 |  |  |
| CCCN=C1CCC([N+](=O)[O-])=C2N(Cc3ccc(Cl)nc3)CCCN12 [Compound 205] |  |  | 100 | 35 |
| O=C(OC1CCC([N+](=O)[O-])=C2N(Cc3ccc(Cl)nc3)CCN21)c1cc(F)c(F)cc1F (stereo not drawn) [Compound 127] | 78 | 45 |  |  |
| CC(C)N=C1CCC([N+](=O)[O-])=C2N(Cc3cnc(Cl)s3)CCN12 [Compound 219] |  |  | 45 | 34 |
| CCOC1CCC([N+](=O)[O-])=C2N(CC3CCOC3)CCCN21 (stereo not drawn) [Compound 101] | 90 | 76 |  |  |
| O=[N+]([O-])C1=C2N(CC3CCOC3)CCCN2C(O)CC1 (stereo not drawn) [Compound 99] | 7 | 6 |  |  |
| N=C1CCC([N+](=O)[O-])=C2N(Cc3cnc(Cl)s3)CCN12 [Compound 212] |  |  | 23 | 34 |
| O=C(OC1CCC([N+](=O)[O-])=C2N(Cc3cnc(Cl)s3)CCN21)c1ccccc1F (stereo not drawn) [Compound 168] |  |  | 100 | 56 |
| N=C1CCC([N+](=O)[O-])=C2N(Cc3cnc(Cl)s3)CCCN12 [Compound 220] |  |  | 56 | 16 |
